Reference: patent US6350767B1, “Compounds with growth hormone releasing properties” (Novo Nordisk A/S, priority 1995, dated 2002)
Counter-ions that a name gives are not always drawn.

Assays:
carboxypeptidase Y and B = experiment: Metabolic stability in carboxypeptidase mix (ESMS, SIM of the molecular ion); type: in vitro ADME; settings: stability after 24 h at 37° C. in carboxypeptidase Y and B, 50 mM ammoniumacetate pH 4.5; enzyme:substrate approx. 1:5 (w/w)
Experimental: (§1) Compounds of formula I may be evaluated for their metabolic stability.
(§2) Compounds were dissolved at a concentration of 1 μg/μl in water. 25 μl of this solution is added to 175 μl of the respective enzyme-solution (resulting in an enzyme:substrate ratio (w/w) of approximately 1:5). The solution is left at 37° C. overnight. 10 μl of the various degradation solutions is analyzed against a corresponding zero-sample using flow injection electrospray mass spectrometry (ESMS) with selected ion monitoring of the molecular ion. If the signal has decreased more than 20% compared to the zero-sample, the remainder of the solution is analyzed by HPLC and mass spectrometry in order to identify the extent and site(s) of degradation precisely.
(§3) Several standard peptides (ACTH 4-10, Angiotensin 1-14 and Glucagon) have been included in the stability tests in order to verify the ability of the various solutions to degrade peptides.
(§4) Enzymes (trypsin, chymotrypsin, elastase aminopeptidase M and carboxypeptidase Y and B) were all purchased from Boehringer Mannheim GmbH (Mannheim, Germany)
Carboxypeptidase mix: carboxypeptidase Y and B in 50 mM ammoniumacetate pH 4.5 (all concentrations 0.025 μg/μl).
(§5) Quantification of the compounds (before and after degradation) was done on the API III instrument using single ion monitoring of the molecular ion in question with flow injection of the analyte. […]

[1] = test system: trypsin, chymotrypsin and elastase; experiment: Metabolic stability in pancreatic enzyme mix (ESMS, SIM of the molecular ion); type: in vitro ADME; settings: stability after 24 h at 37° C. in trypsin, 100 mM ammoniumbicarbonate pH 8.0, enzyme:substrate approx. 1:5 (w/w)
Experimental: as §1, §2, §3, §4
Pancreatic enzyme mix: trypsin, chymotrypsin and elastase in 100 mM ammoniumbicarbonate pH 8.0 (all concentrations 0.025 μg/μl).
as §5

Row | Compound | melting point [°C] | Carboxy-peptidase mix (carboxypeptidase Y and B) | Pan. enzyme mix [1]
1 | Cc1noc([C@@H](Cc2ccccc2)NC(=O)[C@@H](Cc2ccc3ccccc3c2)NC(=O)c2cccc(CN)c2)n1 (as salt: salt) | 240 to 241 |  | 
2 | Cc1noc([C@@H](Cc2ccccc2)NC(=O)[C@@H](Cc2ccc3ccccc3c2)NC(=O)[C@@H]2CCCNC2)n1 (stereo in doubt) (as salt: salt) | 198 to 200 |  | 
3 | Glucagon |  | − (Unstable (more than 20% decrease in SIM signal after 24 h in degradation solution)) | − (Unstable (more than 20% decrease in SIM signal after 24 h in degradation solution))

Further lines, with some results ahead:

Row | melting point [°C] | Compound | Carboxy-peptidase mix (carboxypeptidase Y and B) | Pan. enzyme mix [1]
4 | 161 to 167 | Cc1noc([C@@H](Cc2ccccc2)NC(=O)C(Cc2ccc3ccccc3c2)NC(=O)/C=C/C(C)(C)N)n1 (stereo in doubt) (as salt: salt) |  | 
5 | 238 to 241 | Cc1noc([C@@H](Cc2ccccc2)NC(=O)[C@@H](Cc2ccc3ccccc3c2)NC(=O)C2CCNCC2)n1 (stereo in doubt) (as salt: salt) |  | 
